In a melting point compilation (Tetko et al.; mined from patent text by program, amines drawn as free bases though some values may be those of a salt) one finds melting point data, which are given here for 85 compounds.

SMILES strings stand for the structures.

The term melting point denotes the temperature, or range, at which the solid turns liquid. Compound `CCCC(CCC)C(=O)OC1N=C(c2ccccc2F)c2cc(Cl)ccc2NC1=O` (stereo not given) gave a melting point of 147 to 149 °C.
The figure for `Cc1c(F)c(F)cc2c1c(=O)c(C(=O)O)cn2C1CC1` is 294 to 298 °C; for `Cc1ccc(C2c3c(C)c(N4CCN(c5ccc(F)cc5)CC4)c(C)c(C)c3OC2(C)C)cc1` (stereo not given) it is 159 to 162 °C; for `Cn1nc(CO)nc1NCCCCOc1cccc(CN2CCCCC2)c1` it is 82 to 83 °C.
In turn, `NS(=O)(=O)c1nc2ccc(OC(=O)Cc3ccccc3)cc2s1` yielded a melting point of 177 to 179 °C.
In turn, `CC(C)n1nc(-c2c(-c3ccccc3)nn3ccc(OCC(=O)Nc4ccccc4)cc23)ccc1=O` registered a melting point of 208 to 209 °C.
Then `COC(=O)c1cc2c(s1)[C@@H](N1CCCCC1=O)[C@H](OCc1ccccc1)C(C)(C)O2` (relative stereo), with 144 to 145 °C.
The figure for `N#CSc1nc(I)ncc1Br` is 199 to 202 °C; for `CCn1nc(-c2ccc(F)cc2)c(C(C)=O)c(Nc2cccc3ncccc23)c1=O` it is 218 °C; for `Cc1ccc(N2CCN(c3ccc(C(C)(C)O)nc3-c3ccc(C(C)C)cc3)CC2)cc1` it is 130 to 133 °C.
Take `O=c1ncc2c3c(ccc2[nH]1)OCO3`: the melting point was over 300 °C.
Then `C[Si](C)(CCSCCNC(=O)n1cc(F)c(=O)[nH]c1=O)c1ccccc1`, with 90 to 91 °C; and `COC(=O)C(Cc1ccccc1)NC(=S)Nc1nc2ccccc2s1` (racemic), with 168 to 169 °C; and `Cc1onc2c1N(CCCOc1ccccc1)C(=O)COC2(C)c1ccccc1` (stereo not given), with 118 to 120 °C.
Then `CCCCCN(CCC12CC3CC(CC(C3)C1)C2)C(=O)NCC(CC)Cc1ccncc1` (stereo not given), with 72 to 77 °C; and `OC(CC1CCNCC1)(c1ccc(F)cc1)c1ccc(F)cc1`, with 169 to 171 °C; and `CS(=O)(=O)Cc1cccc(C(F)(F)F)c1[N+](=O)[O-]`, with 110 to 113 °C.
Then `CCCCCCCc1ccc(NS(=O)(=O)c2ccc(N3CCNC3=O)cc2)cc1`, with 188 to 190 °C; and `CCCCN(CCCC)c1ccc(C=Cc2ccc(C=CC3=C(C#N)C(=C(C#N)C#N)OC3(c3ccccc3)C(F)(F)F)s2)c(OCc2ccccc2)c1` (stereo not given), with 196 to 197 °C; and `C=CCN1C(=O)CSC1=NOC(=O)NC`, with 108 to 110 °C.
In turn, `Cc1cccc(NC(=O)OC(C)(C)C)c1COc1cccn2c(C)c(C)nc12` had a melting point of 128 to 131 °C.
As for `COC(=O)CSc1nc(N2CCN(c3ccccn3)CC2)ncc1[N+](=O)[O-]`, the melting point lay in the range of 199 to 202 °C.
Then `COc1cc(-c2c(C)c3cc(O)ccc3n2Cc2ccc(OCCN3CCCCC3)cc2)ccc1O`, with 161 to 163 °C; and `COC(=O)C1(c2ccc(OCCNC(=O)C3Cc4ccccc4N3S(=O)(=O)c3ccc(-c4cc(C(F)(F)F)ccc4Cl)cc3)cc2)CC1` (stereo not given), with 64 to 72 °C; and `O=C1c2ccccc2C(=O)N1CCSCc1ccco1`, with 59 to 61 °C.
The figure for `CC(C)c1ccc2c(c1)c(Sc1ccccc1)c(C(C)C(=O)O)n2Cc1ccc(Cl)cc1` (stereo not given) is 181 to 182 °C; for `CC(=O)Oc1cc(C(C)C)ccc1C1(OC(C)=O)C(=O)c2ccccc2C1=O` it is 136 to 137 °C; for `Nc1nc(Nc2ccc(S(N)(=O)=O)cc2)sc1C(=O)c1ccc(C(=O)O)cc1` it is 298 to 300 °C.
For `CN(C)c1ccc([N+](=O)[O-])c(C(O)c2ccccc2)c1` (stereo not given), the melting point was 95 to 97 °C.
For `O=C1OC(=O)c2cc(C#Cc3cccc4ccccc34)ccc21`, the melting point was 220 to 222 °C.
For `CN(C)C1CCc2[nH]c3cc(F)ccc3c2C1` (stereo not given), the melting point lay in the range of 174 to 176 °C.
The figure for `Cc1nn(-c2c(Cl)cc(C(F)(F)F)cc2Cl)nc1SC#N` is 115 to 117 °C; for `CC1(C)NC2C(=O)N(C(O)C(=O)OCC(Cl)(Cl)Cl)C2S1` (stereo not given) it is 125 to 127 °C; for `CN(C)C=Nc1c(S(=O)C(F)(F)F)c(-c2ncon2)nn1-c1c(Cl)cc(C(F)(F)F)cc1Cl` (stereo not given) it is 140 °C.
Turning to `CCOC(=O)c1ccc(-c2nc3cc4c(cc3[nH]2)NC(=O)C4(C)C)c(OC)c1`, the melting point lay in the range of 235 to 240 °C.
As for `Cc1c(C(=O)O)cnn1-c1nc(-c2cccc(C(F)(F)F)c2)cs1`, the melting point was in the range of 227 to 228 °C.
The figure for `CC1CC=C(c2nnn[nH]2)CN1CC(=O)O` (stereo not given) is 136 to 138 °C.
The figure for `CN1CCN(C2=Nc3ccncc3Oc3ccccc32)CC1` is 124 to 125 °C; for `CC(C)=CCCn1ccnc1[N+](=O)[O-]` it is 49 to 51 °C; for `Cc1cc(-c2cnn3c(C(F)(F)F)cc(-c4ccc(Cl)c(Cl)c4)nc23)ccn1` it is 275 °C.
The figure for `CCOC(=O)CCc1oc(-n2ccnc2C)nc1-c1ccc(Cl)cc1` is 70 to 71 °C; for `CC(C)(CNc1ccnc2cc(Cl)ccc12)NCc1ccncc1` it is 157 to 159 °C; for `NC(C(=O)O)c1ccsc1` (stereo not given) it is 283 to 285 °C.
In the case of `CCOCc1nc2c(N)nc(C)c(C)c2n1CCCON=C(C)C`, the melting point was in the range of 123 to 125 °C.
The figure for `CCOc1nn(-c2ccc(C(F)(F)F)cn2)cc1CCCOc1nn(C)cc1CC(=O)O` is 115 to 116 °C.
For `CC(C)(C)c1cc(C(=O)OCc2ccc(C(=O)OCc3ccccc3)cc2)cc(C(C)(C)C)c1O`, the melting point was in the range of 110 to 111 °C.
The figure for `COC(=O)Nc1nccc(Oc2ccc3c(C(=O)Nc4cccc(C(F)(F)F)c4)cccc3c2)n1` is 199 to 200 °C; for `CS(=O)(=O)c1ccc(-c2cnn(-c3ccc(F)c(F)c3)c(=O)c2Cc2ccccc2)cc1` it is 166 to 168 °C; for `CS(=O)(=O)c1ccc(-c2sc(-c3ccccc3Cl)nc2-c2ccc(Br)cc2)cc1` it is 168 to 184 °C.
Regarding `N#Cc1c(N)n[nH]c1-c1ccc(Oc2ccccc2)cc1`, the melting point is 187 to 188 °C.
The figure for `O=C1c2ccc(Nc3ccc(F)cc3F)cc2CCc2cc(OCCCO)ccc21` is 154 °C; for `O=C(Nc1ccccc1)N1CC(Oc2cccc(C(F)(F)F)c2)C1` it is 137 to 138 °C; for `O=c1[nH]cc2c(c1-c1ccc(O)cc1)Nc1ccccc1S2` it is over 300 °C.
The figure for `OCCCCC=CCCc1ccc(OCc2ccccc2)cc1` is 65 to 67 °C.
As to `CC(C)(C)c1ccc([N+](=O)[O-])c(C(=O)O)c1`, the melting point is 137 to 139 °C.
Then `Cc1nc2c(c3c1[nH]c1ccccc13)C(=O)CC(C)(C)C2`, with 176 to 177 °C; and `CC1(C2CCCC2)Cc2cc(OC3=C(O)C(=O)NC3=O)c(Cl)c(Cl)c2C1=O` (stereo not given), with 181 to 183 °C; and `CC12C=CCC1C1CC(O)c3cc(O)ccc3C1CC2` (stereo not given), with 150 to 157 °C.
Then `CCc1c(C(=O)c2cc(C)cc(C=CC#N)c2)[nH]c(=O)[nH]c1=O`, with 305 to 306 °C.
The figure for `N#Cc1cc(-c2cccc(F)c2)c[nH]c1=O` is 261 to 266 °C; for `CCn1c2ccccc2c2cc(C=Cc3ccc(N)cc3)ccc21` it is 131 to 132 °C.
As for `O=[N+]([O-])c1ccc(C2CCc3c(CCCCCCO)n[nH]c3C2)cc1` (stereo not given), the melting point fell in the range of 69 to 70 °C.
Compound `Cc1ccc2c(c1)C(N(CCCCC(=O)O)S(C)(=O)=O)CC(C)(C)O2` (stereo not given) had a melting point of 190 to 195 °C.
Then `COC(=O)c1ccc2cc(-c3ccc(OCCCO)c(C45CC6CC(CC(C6)C4)C5)c3)ccc2c1`, with 202 °C; and `Cc1cn(C2OC(CO)C(O)C2F)c(=O)[nH]c1=O` (stereo not given), with 185 to 186 °C.
The figure for `NC(=O)Nc1n[nH]c(-c2ccncc2)c1-c1ccc(F)cc1` is 224 to 225 °C.
The figure for `CC(C)(NS(=O)(=O)c1ccc(Oc2ccc(F)cc2)cc1)C(=O)NO` is 133 to 134 °C.
For `CCc1cc(Nc2cc(Cl)c(C(F)(F)F)cc2[N+](=O)[O-])c(OC)cc1OC`, the melting point fell in the range of 161 to 162 °C.
Then `CC(C)C[C@H](NC(=O)OC(c1ccccc1)c1ccccc1)C(=O)Oc1c(Cl)c(Cl)c(Cl)c(Cl)c1Cl`, with 84 to 86 °C.
The figure for `CCn1nc(N)nc1NCCCOc1cccc(CN2CCCCC2)c1` is 116 to 118 °C; for `CCCc1c(OCc2cccc(C(=O)OCC)c2OCC)ccc(C(C)=O)c1O` it is 59 to 62 °C; for `CCOC(=O)c1cn([C@@H]2C[C@@H]2F)c2c(C)c(F)ccc2c1=O` it is 187 to 188 °C.
The figure for `CCOC(=O)C1=C(C)NC(C)=C(C(=O)OCC)C1c1ccccc1/C=C(\CC)C(=O)OCC` is 92 to 94 °C.
On to `CC(C)(C)c1ccc2c(c1)[C@H]1Cc3ccccc3[C@H]1N2` (relative stereo), for which the melting point lay in the range of 103 to 105 °C.
The figure for `CCCc1nc2c(N)nc3cc(Oc4ccccc4[N+](=O)[O-])ccc3c2n1CC(C)C` is 207 to 208 °C; for `CN1C(=O)CCC(C)(C)c2cc(Nc3ncc(Cl)c(Nc4ccccc4S(=O)(=O)N(C)C)n3)ccc21` it is 198 to 200 °C; for `Cc1cccc(N(c2ccccc2)c2ccc3c(c2)C(CCCO)(CCCO)c2cc(N(c4ccccc4)c4cccc(C)c4)ccc2-3)c1` it is 216 to 217 °C.
The figure for `CCS(=O)(=O)c1ccc(C(CC2CCCC2)C(=O)O)cc1` (stereo not given) is 137 to 138 °C; for `CCCS(=O)c1cccnc1S(=O)(=O)NC(C)(C)C` (stereo not given) it is 138 to 140 °C; for `CS(=O)(=O)c1ccc(-c2nc3cc(C4CCN(C(=O)OCc5ccccc5)CC4)ccc3o2)c(F)c1` it is 172 to 175 °C.
Then `O=C(NCc1ccccn1)c1cc(OCC(F)(F)F)ccc1OCc1ccccc1`, with 115 to 116 °C; and `CC(=O)c1c(-c2ccc(F)cc2)nc2occn12`, with 173 °C.
In the case of `O=C1COc2cc(SCc3ccc(O)cc3)ccc2N1`, the melting point fell in the range of 207 to 209 °C.
Then `O=C(Nc1cccc2c1C(=O)c1c-2n[nH]c1-c1ccc(C(=O)N2CCC[C@@H]2CN2CCCC2)s1)NN1CCOCC1`, with 166 to 167 °C; and `C=CCC(C)(C)C(=O)NC1CCCNC(=O)C1` (stereo not given), with 71 to 72 °C.
